From patent publication US10123993B2, “Cyclic ureas as inhibitors of rock” (BRISTOL-MYERS SQUIBB COMPANY, priority 2015, dated 2018)
Structures can show the parent of a compound that is named as a salt.

Target: ROCK2 (Homo sapiens, UniProt O75116)
Test: ROCK2 kinase inhibition assay (Caliper LABCHIP, FITC peptide substrate)
Type: biochemical
Details: 5 μM ATP, 1.5 μM peptide substrate; value ranges
Outline: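 Dose-response curves gave IC50 from inhibition of peptide phosphorylation, measured by LabChip separation after EDTA stop. Reactions used 1.5 μM FITC-labelled peptide, 5 μM ATP, 20 mM HEPES pH 7.5 with MgCl2, Brij-35, DTT, and under 2% DMSO.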

Sequence of ROCK2 (O75116 whole entry, species assumed): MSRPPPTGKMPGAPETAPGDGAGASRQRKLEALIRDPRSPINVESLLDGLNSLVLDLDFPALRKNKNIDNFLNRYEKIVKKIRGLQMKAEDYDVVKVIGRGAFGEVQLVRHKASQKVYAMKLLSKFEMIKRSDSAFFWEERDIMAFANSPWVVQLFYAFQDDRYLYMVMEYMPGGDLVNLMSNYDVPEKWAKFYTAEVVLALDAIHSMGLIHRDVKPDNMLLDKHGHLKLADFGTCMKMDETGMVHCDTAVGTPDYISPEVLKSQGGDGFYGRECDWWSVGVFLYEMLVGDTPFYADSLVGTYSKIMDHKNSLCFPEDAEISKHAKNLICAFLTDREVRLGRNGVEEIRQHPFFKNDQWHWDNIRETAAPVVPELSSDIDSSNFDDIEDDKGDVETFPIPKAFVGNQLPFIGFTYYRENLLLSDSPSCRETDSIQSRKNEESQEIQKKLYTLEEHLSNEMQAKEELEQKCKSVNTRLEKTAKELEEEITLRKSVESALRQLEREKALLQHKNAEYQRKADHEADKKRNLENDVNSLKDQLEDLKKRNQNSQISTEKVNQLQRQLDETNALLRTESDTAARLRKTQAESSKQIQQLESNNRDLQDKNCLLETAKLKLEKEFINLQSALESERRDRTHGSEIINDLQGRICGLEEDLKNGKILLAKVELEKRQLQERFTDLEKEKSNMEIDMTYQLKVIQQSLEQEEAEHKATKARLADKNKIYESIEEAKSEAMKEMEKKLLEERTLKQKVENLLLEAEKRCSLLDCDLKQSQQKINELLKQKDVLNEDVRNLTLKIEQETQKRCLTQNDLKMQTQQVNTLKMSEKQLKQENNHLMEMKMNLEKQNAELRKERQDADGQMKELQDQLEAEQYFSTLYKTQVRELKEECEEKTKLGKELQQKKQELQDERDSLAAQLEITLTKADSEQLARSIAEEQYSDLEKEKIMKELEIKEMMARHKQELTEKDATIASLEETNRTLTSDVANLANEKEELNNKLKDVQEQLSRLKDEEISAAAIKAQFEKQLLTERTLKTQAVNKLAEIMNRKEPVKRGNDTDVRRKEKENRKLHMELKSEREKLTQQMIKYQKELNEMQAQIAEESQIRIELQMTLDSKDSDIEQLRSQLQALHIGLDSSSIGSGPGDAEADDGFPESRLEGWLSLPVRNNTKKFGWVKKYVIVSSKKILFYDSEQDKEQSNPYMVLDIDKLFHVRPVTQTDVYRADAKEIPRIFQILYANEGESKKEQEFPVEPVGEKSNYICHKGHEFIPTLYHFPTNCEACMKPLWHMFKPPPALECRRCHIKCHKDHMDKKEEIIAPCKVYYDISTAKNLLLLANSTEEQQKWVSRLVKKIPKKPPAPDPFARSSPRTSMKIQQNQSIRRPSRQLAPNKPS

SMILES | IC50 [nM]
CCc1cc(N2CCN(Cc3cccc(F)c3)C2=O)ccc1-c1cn[nH]c1 [Example 24, 1-(3-Ethyl-4-(1H-pyrazol-4-yl)phenyl)-3-(3-fluorobenzyl)imidazolidin-2-one] | 2.1 to 20
CCc1cc(N2CCN(Cc3ccccc3F)C2=O)ccc1-c1cn[nH]c1 [Example 25, 1-(3-Ethyl-4-(1H-pyrazol-4-yl)phenyl)-3-(2-fluorobenzyl)imidazolidin-2-one] | 20.1 to 200
CCc1cc(N2CCN(Cc3ccccc3)C2=O)ccc1-c1cn[nH]c1 [Example 26, 1-Benzyl-3-(3-ethyl-4-(1H-pyrazol-4-yl)phenyl)imidazolidin-2-one] | 20.1 to 200
CCc1cc(N2CCN(CCc3cccc(OC)c3)C2=O)ccc1-c1cn[nH]c1 [Example 27, 1-(3-Ethyl-4-(1H-pyrazol-4-yl)phenyl)-3-(3-methoxyphenethyl)imidazolidin-2-one, TFA] | 200 to 2000
CCOC(=O)C1CN(Cc2ccccc2)C(=O)N1c1ccc(-c2cn[nH]c2)cc1 (centres unmarked) [Example 29, Ethyl 3-(4-(1H-pyrazol-4-yl)phenyl)-1-benzyl-2-oxoimidazolidine-4-carboxylate] | 20.1 to 200
O=C1N(Cc2ccccc2)CC(CO)N1c1ccc(-c2cn[nH]c2)cc1 (centres unmarked) [Example 30, 3-(4-(1H-Pyrazol-4-yl)phenyl)-1-benzyl-4-(hydroxymethyl)imidazolidin-2-one] | 20.1 to 200
COc1cc(N2CCN(Cc3ccccc3-c3cn[nH]c3)C2=O)ccc1-c1cn[nH]c1 [Example 31, 1-(2-(1H-Pyrazol-4-yl)benzyl)-3-(3-methoxy-4-(1H-pyrazol-4-yl)phenyl)imidazolidin-2-one, TFA] | 20.1 to 200
O=C(O)C1CN(c2ccc(-c3cn[nH]c3)cc2)C(=O)N1Cc1cccc(F)c1 (centres unmarked) [Example 32, 1-(4-(1H-Pyrazol-4-yl)phenyl)-3-(3-fluorobenzyl)-2-oxoimidazolidine-4-carboxylic Acid] | 200 to 2000
O=C(O)C1CN(Cc2cccc(F)c2)C(=O)N1c1ccc(-c2cn[nH]c2)cc1 (centres unmarked) [Example 33, 3-(4-(1H-Pyrazol-4-yl)phenyl)-1-(3-fluorobenzyl)-2-oxoimidazolidine-4-carboxylic Acid] | 200 to 2000
COC(=O)C1CN(Cc2cccc(F)c2)C(=O)N1c1ccc(-c2cn[nH]c2)cc1 (centres unmarked) [Example 34, Methyl 3-(4-(1H-pyrazol-4-yl)phenyl)-1-(3-fluorobenzyl)-2-oxoimidazolidine-4-carboxylate] | 20.1 to 200
COc1cccc(CN2CC(C(=O)O)N(c3ccc(-c4cn[nH]c4)cc3)C2=O)c1 (centres unmarked) [Example 35, 3-(4-(1H-Pyrazol-4-yl)phenyl)-1-(3-methoxybenzyl)-2-oxoimidazolidine-4-carboxylic Acid] | 20.1 to 200
CCOC(=O)C1CN(Cc2cccc(OC)c2)C(=O)N1c1ccc(-c2cn[nH]c2)cc1 (centres unmarked) [Example 36, Ethyl 3-(4-(1H-pyrazol-4-yl)phenyl)-1-(3-methoxybenzyl)-2-oxoimidazolidine-4-carboxylate] | 2.1 to 20
O=C1N(c2ccc(-c3cn[nH]c3)cc2)CC(CO)N1Cc1ccccc1 (centres unmarked) [Example 38, 1-(4-(1H-Pyrazol-4-yl)phenyl)-3-benzyl-4-(hydroxymethyl)imidazolidin-2-one] | 2.1 to 20
O=C1N(Cc2cccc(F)c2)CC(CO)N1c1ccc(-c2cn[nH]c2)cc1 (centres unmarked) [Example 39, 3-(4-(1H-Pyrazol-4-yl)phenyl)-1-(3-fluorobenzyl)-4-(hydroxymethyl)imidazolidin-2-one] | 2.1 to 20
COc1cccc(CN2C(=O)N(c3ccc(-c4cn[nH]c4)c(OC)c3)CC2CO)c1 (centres unmarked) [Example 40, 4-(Hydroxymethyl)-1-(3-methoxy-4-(1H-pyrazol-4-yl)phenyl)-3-(3-methoxybenzyl)imidazolidin-2-one] | < 2
COc1cc(N2CC(CO)N(Cc3ccccc3)C2=O)ccc1-c1cn[nH]c1 (centres unmarked) [Example 41, 3-Benzyl-4-(hydroxymethyl)-1-(3-methoxy-4-(1H-pyrazol-4-yl)phenyl)imidazolidin-2-one] | 2.1 to 20

SMILES | IC50 [nM]
O=C1N(Cc2cccc(F)c2)CCN1c1ccc(-c2ccncc2F)cc1 [Example 49, 1-(3-fluorobenzyl)-3-(4-(3-fluoropyridin-4-yl)phenyl)imidazolidin-2-one] | 20.1 to 200
COc1cccc(CN2CCN(c3ccc(-c4ccncc4F)cc3)C2=O)c1 [Example 50, 1-(4-(3-fluoropyridin-4-yl)phenyl)-3-(3-methoxybenzyl)imidazolidin-2-one] | 20.1 to 200
O=C1N(Cc2cccc(F)c2)CCN1c1ccc(-c2ccnc(F)c2)cc1 [Example 51, 1-(3-fluorobenzyl)-3-(4-(2-fluoropyridin-4-yl)phenyl)imidazolidin-2-one] | 200 to 2000
O=C1N(Cc2ccccc2)CCN1c1ccc(-c2ccncc2F)cc1 [Example 52, 1-benzyl-3-(4-(3-fluoropyridin-4-yl)phenyl)imidazolidin-2-one] | 20.1 to 200
O=C1N(CCc2ccccc2)CCN1c1ccc(-c2ccncc2F)cc1 [Example 53, 1-(4-(3-fluoropyridin-4-yl)phenyl)-3-phenethylimidazolidin-2-one] | 200 to 2000
COc1cccc(CN2CCN(c3ccc(-c4ccnc(F)c4)cc3)C2=O)c1 [Example 54, 1-(4-(2-fluoropyridin-4-yl)phenyl)-3-(3-methoxybenzyl)imidazolidin-2-one] | 20.1 to 200
O=C1N(Cc2ccccc2)CCN1c1ccc(-c2ccncc2)cc1 [Example 55, 1-benzyl-3-(4-(pyridin-4-yl)phenyl)imidazolidin-2-one, TFA] | 20.1 to 200
O=C1N(Cc2cccc(F)c2)CCN1c1ccc(-c2ccncc2)cc1 [Example 56, 1-(3-fluorobenzyl)-3-(4-(pyridin-4-yl)phenyl)imidazolidin-2-one, TFA] | 20.1 to 200
O=C1N(Cc2ccccc2F)CCN1c1ccc(-c2ccncc2)cc1 [Example 57, 1-(2-fluorobenzyl)-3-(4-(pyridin-4-yl)phenyl)imidazolidin-2-one, TFA] | 200 to 2000
COc1ccc(F)c(CN2CCN(c3ccc(-c4ccncc4)c(OC)c3)C2=O)c1 [Example 58, 1-(2-fluoro-5-methoxybenzyl)-3-(3-methoxy-4-(pyridin-4-yl)phenyl)imidazolidin-2-one, TFA] | 200 to 2000
COc1cc(N2CCN(Cc3cccc(F)c3)C2=O)ccc1-c1ccncc1 [Example 59, 1-(3-fluorobenzyl)-3-(3-methoxy-4-(pyridin-4-yl)phenyl)imidazolidin-2-one, TFA] | 20.1 to 200
O=C1N(Cc2ccccc2)CCN1c1ccc(-c2cnoc2)cc1 [Example 60, 1-benzyl-3-(4-(isoxazol-4-yl)phenyl)imidazolidin-2-one] | 20.1 to 200
O=C1N(Cc2cccc(F)c2)CCN1c1ccc(-c2cnoc2)cc1 [Example 61, 1-(3-fluorobenzyl)-3-(4-(isoxazol-4-yl)phenyl)imidazolidin-2-one] | 200 to 2000
COc1cccc(CN2CCN(c3ccc(-c4ccnc(N)c4)cc3)C2=O)c1 [Example 62, 1-(4-(2-Aminopyridin-4-yl)phenyl)-3-(3-methoxybenzyl)imidazolidin-2-one, TFA] | 20.1 to 200
COc1cccc(CN2CCN(c3ccc(-c4ccnc(N)n4)cc3)C2=O)c1 [Example 63, 1-(4-(2-Aminopyrimidin-4-yl)phenyl)-3-(3-methoxybenzyl)imidazolidin-2-one] | 20.1 to 200
COc1cccc(CN2CCN(c3ccc(-c4ncnc5[nH]ccc45)cc3)C2=O)c1 [Example 64, 1-(4-(7H-Pyrrolo[2,3-d]pyrimidin-4-yl)phenyl)-3-(3-methoxybenzyl)imidazolidin-2-one] | 200 to 2000
